pKi: −log10 of the molar value. Values after ≈ are worked out from the molar mass of the structure shown. Positions of bridges follow the written chain, without caps; N, C: chain ends. Non-standard residues stand in square brackets, D forms with d. Residues, ends and D or L forms follow the SMILES beside them. Groups on a side chain read outwards from the residue. *: point of attachment. Palmitoyl(16-(5-tetrazolyl)) = O=C(CCCCCCCCCCCCCCCc1nnn[nH]1)*; Lys(CH2CO2H)2 = N[C@@H](CCCCN(CC(=O)O)CC(=O)O)C(=O)O; C17 diacid = O=C(O)CCCCCCCCCCCCCCCC(=O)*; C16 diacid = O=C(O)CCCCCCCCCCCCCCC(=O)*; C14 diacid = O=C(O)CCCCCCCCCCCCC(=O)*; NTA = O=C(O)CN(CC(=O)O)CC(=O)*; hCys = N[C@@H](CCS)C(=O)O; Orn = NCCC[C@H](N)C(=O)O; Dab = NCC[C@H](N)C(=O)O; Dap = NC[C@H](N)C(=O)O; AEEA = NCCOCCOCC(=O)O
What was measured:
physchem = assay: physchem
Description: From a stock solution in vehicle, either H2O or 10 mM phosphate, containing 1 mg (as weighed) compound per ml, 8-11 aliquots are withdrawn and pH-adjusted individually with HCl/NaOH, to cover the whole pH range.

MC1 receptor = MC1 receptor (Homo sapiens, UniProt Q01726); assay: biochemical
Sequence of MC1 receptor (Q01726 whole entry): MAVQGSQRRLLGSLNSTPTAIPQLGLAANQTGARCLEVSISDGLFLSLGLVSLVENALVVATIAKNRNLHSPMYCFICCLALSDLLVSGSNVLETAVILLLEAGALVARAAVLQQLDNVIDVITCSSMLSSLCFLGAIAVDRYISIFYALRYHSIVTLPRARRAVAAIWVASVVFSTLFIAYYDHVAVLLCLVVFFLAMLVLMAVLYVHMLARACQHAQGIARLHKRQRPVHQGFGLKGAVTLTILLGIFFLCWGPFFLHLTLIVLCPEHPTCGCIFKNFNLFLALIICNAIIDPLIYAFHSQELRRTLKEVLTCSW
Description: Assay (IV)—Melanocortin Receptor 1 (MC1) Binding Assay
The MC1 receptor binding assay was performed on BHK cell membranes stably expressing the MC1 receptor. The assay was performed in a total volume of 250 μl: 25 μl of ^125NDP-α-MSH (22 pM in final concentration), 25 μl of test compound/control and 200 μl of cell membrane (25 μg/ml). Test compounds were dissolved in DMSO. Radioactively labeled ligand, membranes and test compounds were diluted in buffer: 25 mM HEPES, pH 7.4, 0.1 mM CaCl2, 1 mM MgSO4, 1 mM EDTA, 0.1% HSA and 0.005% Tween™ 20. Alternatively, HSA may be substituted with ovalbumin. The samples were incubated at 30° C. for 90 min. in Costar round-bottom microtiter plates. Incubation was terminated by filtration on a Packard harvester filtermate. Rapid filtration through Packard Unifilter-96 GF/B filters pre-treated with polyetylenimine (PerkinElmer 6005277). The filters were washed with ice-cold 0.9% NaCl 8-10 times. The plates were air-dried at app. 55° C. for 30 min, and 50 μl Microscint 0 (Packard, cat. No. 6013616) was added to each well. The plates were counted in a Topcounter (1 min/well).
The data were analysed by non-linear regression analysis of binding curves, using the Windows™ program GraphPad™ Prism (GraphPad Software, USA).

SMILES | solubility (physchem; pH 6.1, Solubility Conc.) [µM] | solubility (physchem; pH 6.8, Solubility Conc.) [µM] | solubility (physchem; pH 7.1, Solubility Conc.) [µM] | solubility (physchem; pH 7.3, Solubility Conc.) [µM] | solubility (physchem; pH 7.7, Solubility Conc.) [µM] | solubility (physchem; pH 7.9, Solubility Conc.) [µM] | pKi (MC1 receptor) | further results
CC(=O)N[C@H]1CCC(=O)NCCC[C@@H](C(=O)N2CCC[C@H]2C(=O)N2CCC[C@H]2C(=O)N[C@@H](CC(=O)O)C(=O)N[C@@H](CCCCN(CC(=O)O)CC(=O)O)C(=O)N[C@@H](CCCCNC(=O)COCCOCCNC(=O)CCCCCCCCCCCCCCC(=O)O)C(N)=O)NC(=O)[C@H](Cc2c[nH]c3ccccc23)NC(=O)[C@H](CCCNC(=N)N)NC(=O)[C@@H](Cc2ccccc2)NC(=O)[C@H](Cc2c[nH]cn2)NC1=O [Example 13, Ac-c[Glu-His-D-Phe-Arg-Trp-Orn]-Pro-Pro-Asp-Lys(biscarboxymethyl)-Lys({2-[2-(15-carboxypentadecanoylamino)ethoxy]ethoxy}acetyl)-NH2] (Ac-EH[dF]RW[Orn]PPD[Lys(CH2CO2H)2]K([AEEA-C16 diacid])-NH2; lactam 1-6) | 473 (≈ 949 µg/mL) | 459 (≈ 921 µg/mL) | 506 (≈ 1020 µg/mL) | 467 (≈ 937 µg/mL) | 472 (≈ 947 µg/mL) | 493 (≈ 989 µg/mL) | < 5.00 | solubility (physchem; pH 5.5, Solubility Conc.): 348 µM (≈ 698 µg/mL); solubility (physchem; pH 5.7, Solubility Conc.): 494 µM (≈ 991 µg/mL); solubility (physchem; pH 6.5, Solubility Conc.): 469 µM (≈ 941 µg/mL)
CC(=O)N[C@H]1CCNC(=O)C[C@@H](C(=O)N2CCC[C@H]2C(=O)N2CCC[C@H]2C(=O)N[C@@H](CCCNC(=N)N)C(=O)N[C@@H](CCC(=O)O)C(=O)N[C@@H](CCCCN(CC(=O)O)CC(=O)O)C(=O)N[C@@H](CCCCNC(=O)COCCOCCNC(=O)CCCCCCCCCCCCCCCc2nnn[nH]2)C(N)=O)NC(=O)[C@H](Cc2c[nH]c3ccccc23)NC(=O)[C@H](CCCNC(=N)N)NC(=O)[C@@H](Cc2ccccc2)NC(=O)[C@H](Cc2c[nH]cn2)NC1=O [Example 15, Ac-c[Dab-His-D-Phe-Arg-Trp-Asp]-Pro-Pro-Arg-Glu-Lys(biscarboxymethyl)-Lys[(2-{2-[16-(tetrazol-5-yl)hexadecanoylamino]ethoxy}ethoxy)acetyl]-NH2] (Ac-[Dab]H[dF]RWDPPRE[Lys(CH2CO2H)2]K([AEEA-Palmitoyl(16-(5-tetrazolyl))])-NH2; lactam 1-6) | 26 (≈ 56.9 µg/mL) | 60 (≈ 131 µg/mL) | 147 (≈ 321 µg/mL) | 395 (≈ 864 µg/mL) | 461 (≈ 1010 µg/mL) | – | < 5.00 | solubility (physchem; pH 5, Solubility Conc.): 49 µM (≈ 107 µg/mL); solubility (physchem; pH 7.4, Solubility Conc.): 445 µM (≈ 973 µg/mL); solubility (physchem; pH 7.8, Solubility Conc.): 441 µM (≈ 964 µg/mL); solubility (physchem; pH 8, Solubility Conc.): 417 µM (≈ 912 µg/mL)
CC(=O)N[C@H]1CCCNC(=O)CC[C@@H](C(=O)N2CCC[C@H]2C(=O)N[C@@H](CO)C(=O)N[C@@H](CCCCN)C(=O)N[C@@H](CCC(=O)O)C(=O)N[C@@H](CCC(=O)O)C(=O)N[C@@H](CO)C(=O)N[C@@H](CO)C(=O)N[C@@H](CCC(=O)O)C(=O)N[C@@H](CCCCNC(=O)COCCOCCNC(=O)CCCCCCCCCCCCCCCC(=O)O)C(N)=O)NC(=O)[C@H](Cc2c[nH]c3ccccc23)NC(=O)[C@H](CCCNC(=N)N)NC(=O)[C@@H](Cc2ccccc2)NC(=O)[C@H](Cc2c[nH]cn2)NC1=O [Example 20] (Ac-[Orn]H[dF]RWEPSKEESSEK([AEEA-C17 diacid])-NH2; lactam 1-6) | – | – | – | 433 (≈ 1010 µg/mL) | – | 398 (≈ 932 µg/mL) | < 5.00 | solubility (physchem; pH 6, Solubility Conc.): 192 µM (≈ 449 µg/mL); solubility (physchem; pH 6.3, Solubility Conc.): 399 µM (≈ 934 µg/mL); solubility (physchem; pH 6.4, Solubility Conc.): 410 µM (≈ 960 µg/mL); solubility (physchem; pH 6.7, Solubility Conc.): 416 µM (≈ 974 µg/mL); solubility (physchem; pH 7, Solubility Conc.): 420 µM (≈ 983 µg/mL); solubility (physchem; pH 7.6, Solubility Conc.): 429 µM (≈ 1000 µg/mL); solubility (physchem; pH 8.2, Solubility Conc.): 439 µM (≈ 1030 µg/mL)
CC(=O)N[C@H]1CCSSC[C@@H](C(=O)N2CCC[C@H]2C(=O)N2CCC[C@H]2C(=O)N[C@@H](CCCCN)C(=O)N[C@@H](CC(=O)O)C(=O)N[C@@H](CNC(=O)CN(CC(=O)O)CC(=O)O)C(=O)N[C@@H](CCCCNC(=O)COCCOCCNC(=O)CCCCCCCCCCCCC(=O)O)C(N)=O)NC(=O)[C@H](Cc2c[nH]c3ccccc23)NC(=O)[C@H](CCCNC(=N)N)NC(=O)[C@@H](Cc2ccccc2)NC(=O)[C@H](Cc2c[nH]cn2)NC1=O [Example 69, Ac-c[homoCys-His-D-Phe-Arg-Trp-Cys]-Pro-Pro-Lys-Asp-Dap(BCMA)-Lys({2-[2-(13-carboxytridecanoylamino)ethoxy]ethoxy}acetyl)-NH2] (Ac-[hCys]H[dF]RWCPPKD[Dap](NTA)K([AEEA-C14 diacid])-NH2; disulfide 1-6) | – | – | – | – | – | – | < 5.00 | –

From patent US20130012432A1, “Peptides for Treatment of Obesity” (Novo Nordisk A/S, priority 2010, published 2013)
